Key:
[1] = given intravenously every 2 weeks; cited from earlier work
B16-F10 = experiment: Surface expression of calreticulin by flow cytometry, B16-F10; format: cell-based, murine; details: B16-F10 (Melanoma); 40 μM ABC294640, 24 hours; relative to DMSO control = 1.0; logarithmic scale
Description: (§1) One indicator that tumor cells are undergoing immunogenic cell death (ICD) is increased expression of calreticulin on the surface of the cells. Calreticulin is normally expressed in the endoplasmic reticulum (ER) of cells; however, when cells are treated with an agent that promotes ER stress, calreticulin expression can be observed on the external surface of the cells. Promotion of ER stress is a typical mechanism for inducing ICD, and therefore measuring the surface expression of calreticulin is an established method for determining if a compound causes ICD. The effects of ABC294640, an inhibitor of sphingosine kinase-2, on the surface expression of calreticulin in several different types of tumor cells were examined. […] The cells were then incubated with a fluorescently labeled antibody that selectively binds to calreticulin, washed and then analyzed by flow cytometry to quantify the amount of surface calreticulin on many individual cells. The resulting data is analyzed by determining the geometric mean of the fluorescence intensity for the population of cells using algorithms well known in the field of flow cytometry. […] The geometric mean of the fluorescence intensity for cell samples treated with DMSO was expressed as 1.0 and the data for cell samples treated with ABC294640 were expressed relative to the DMSO control. […]

Neuro-2a = experiment: Surface expression of calreticulin by flow cytometry, Neuro-2a; format: cell-based, murine; details: Neuro-2a (Neuroblastoma); 40 μM ABC294640, 24 hours; relative to DMSO control = 1.0; logarithmic scale
Description: as §1

LLC tumors = experiment: LLC tumor model, ABC294640 in combination with anti-CTLA4 antibody (Example 9); format: in vivo, mice
Description: The combined effects of treating tumor-bearing mice with ABC294640 and anti-CTLA41 antibody were examined in the LLC tumor model. Anti-mouse CTLA-4 (catalog number BE0131) antibody was purchased from BioXCell (West Lebanon, N.H.). Mice were injected with 1,000,000 LLC cells suspended in PBS into the right hind flank subcutaneously on Day 0 of the experiment. Mice were randomized On Day 3 of the experiment into the following four treatment groups (n=5/group): Control (vehicle only); ABC294640 alone; anti-CTLA4 antibody alone; and ABC294640 in combination with anti-CTLA4 antibody. ABC294640 was suspended in vehicle (46.7% PEG, 46.7% saline and 6.6% ethanol) and dosed by oral gavage at 50 mg/kg 5 days/week (i.e. days 3-7, 10-14, 17-21, etc.) until sacrifice. Anti-CTLA4 antibody was suspended in dilution buffer (BioXCell, catalog number IP0070) and administered by intraperitoneal (i.p.) injection at a dose of 200 μg/mouse on Days 3, 6, 10, 13, 17 and 20. The combination treatment group mice received antibody and ABC294640 treatments concomitantly on days when antibody was scheduled. Control group mice received oral vehicle and/or sterile PBS i.p. on all days that treated mice received either ABC294640 or antibody. Tumors were measured with digital calipers three times per week and volumes were calculated using the formula, (L×W^2)/2. Mice were euthanized when tumor volumes reached ≥3,000 mm^3. […] Tumors in the Control mice grew progressively after a lag of approximately 7 days. On Day 21, the average tumor volumes for the Control, ABC294640 alone, anti-CTLA4 antibody alone, and combination treatment groups were 4622±548, 3197±914, 3029±675 and 1274±336 mm^3, respectively. […] As directed by the IACUC protocol, each mouse was sacrificed when its tumor volume reached 3,000 mm^3. […] The combination of ABC294640 plus anti-CTLA4 antibody increased median survival to >26 days, and 60% of these mice survived to Day 26.

PAN02 = experiment: Surface expression of calreticulin by flow cytometry, PAN02; format: cell-based; details: PAN02 (Pancreas); 40 μM ABC294640, 24 hours; relative to DMSO control = 1.0; logarithmic scale (2.0 = 10-fold increase)
Description: as §1

B16 tumors [2] = experiment: B16 tumor model, ABC294640 in combination with anti-PD-1 antibody (Example 8); format: in vivo, C57BL/6 mice
Description: Agents that induce ICD may enhance the antitumor activity of checkpoint antibodies. […] Anti-mouse PD-1 (Catalog number BE0146) antibody was purchased from BioXCell (West Lebanon, N.H.). C57BL/6 mice were injected with 100,000 B16 cells suspended in PBS into the right hind flank subcutaneously on Day 0 of the experiment. Mice were randomized on Day 3 of the experiment into the following four treatment groups (n=10/group): Control (vehicle only); ABC294640 alone; anti-PD-1 antibody alone; and ABC294640 in combination with anti-PD-1 antibody. ABC294640 was suspended in vehicle (46.7% PEG, 46.7% saline and 6.6% ethanol) and dosed by oral gavage at 50 mg/kg 5 days/week (i.e. days 3-7, 10-14, 17-21, etc.) until sacrifice. Anti-PD-1 antibody was suspended in sterile PBS, and administered by intraperitoneal (i.p.) injection at a dose of 200 μg/mouse on Days 3, 6 and 10. The combination treatment group mice received antibody and ABC294640 treatments concomitantly on days when antibody was scheduled. Control group mice received oral vehicle and/or sterile PBS i.p. on all days that treated mice received either ABC294640 or antibody. Tumors were measured with digital calipers three times per week and volumes were calculated using the formula, (L×W^2)/2. Mice were euthanized when tumor volumes reached ≥3,000 mm^3. […] Tumors in the Control mice grew very aggressively after a lag of approximately 10 days. On Day 19, the average tumor volumes for the Control, ABC294640 alone, anti-PD-1 antibody alone, and combination treatment groups were 1702±373, 892±364, 783±265 and 190±114 mm^3, respectively. […] As directed by the IACUC protocol, each mouse was sacrificed when its tumor volume reached 3,000 mm^3. […] Treatment with ABC294640 alone provided a median survival of 24 days and 30% of the mice were alive on Day 56 when the experiment was terminated (p=0.009).

Lewis Lung carcinoma = experiment: Surface expression of calreticulin by flow cytometry, Lewis Lung carcinoma; format: cell-based, murine; details: 40 μM ABC294640, 24 hours, relative to DMSO control = 1.0, logarithmic scale
Description: as §1

B16 tumors [3] = experiment: B16 tumor model, ABC294640 in combination with anti-PD-L1 antibody (Example 10); format: in vivo, mice; details: B16 tumors ≥300 mm^3 at randomization (Day 1); ABC294640 50 mg/kg oral gavage 5 days/week; anti-PD-L1 antibody 200 μg/mouse i.p. Days 1, 3, 5 and 7; Vehicle 8.5
Description: The combined effects of treating tumor-bearing mice with ABC294640 and anti-PD-L1 antibody were examined in the B16 tumor model. Anti-mouse PD-L1 (catalog number BE0101) antibody was purchased from BioXCell (West Lebanon, N.H.). Mice were injected with 100,000 B16 cells suspended in PBS into the right hind flank subcutaneously on Day 0 of the experiment. When the tumor reached a volume of ≥300 mm^3, mice were randomized into the following four treatment groups (n=5-6/group): Control (vehicle only); ABC294640 alone; anti-PD-L1 antibody alone; and ABC294640 in combination with anti-PD-L1 antibody. The day of randomization is noted as Day 1 of the experiment for each mouse. ABC294640 was suspended in vehicle (46.7% PEG, 46.7% saline and 6.6% ethanol) and dosed by oral gavage at 50 mg/kg 5 days/week until sacrifice. Anti-PD-L1 antibody was suspended in dilution buffer (BioXCell, catalog number IP0070) and administered by intraperitoneal (i.p.) injection at a dose of 200 μg/mouse on Days 1, 3, 5 and 7. The combination treatment group mice received antibody and ABC294640 treatments concomitantly on days when antibody was scheduled. Control group mice received oral vehicle and/or sterile PBS i.p. on all days that treated mice received either ABC294640 or antibody. Tumors were measured with digital calipers three times per week and volumes were calculated using the formula, (L×W^2)/2. […]

TRAMP-C2 = experiment: Surface expression of calreticulin by flow cytometry, TRAMP-C2; format: cell-based; details: TRAMP-C2 (Prostate); 40 μM ABC294640, 24 hours; relative to DMSO control = 1.0; logarithmic scale
Description: as §1

E0771 = experiment: Surface expression of calreticulin by flow cytometry, E0771; format: cell-based; details: E0771 (Breast); 40 μM ABC294640, 24 hours; relative to DMSO control = 1.0; logarithmic scale
Description: as §1

Compound | tolerated dose [1] | Surface calreticulin expression (Geometric mean of fluorescence intensity) (B16-F10) | Surface calreticulin expression (Geometric mean of fluorescence intensity) (Neuro-2a) | median survival (LLC tumors; LLC tumor-bearing mice, sacrificed at tumor volume 3,000 mm^3, Control 19 days) [days] | average tumor volume (LLC tumors; LLC tumors, Day 21, ABC294640 50 mg/kg oral gavage 5 days/week, anti-CTLA4 antibody 200 μg/mouse i.p. Days 3, 6, 10, 13, 17 and 20, Control 4622±548) [mm^3] | growth of LLC lung tumors (FIG. 8) (LLC tumors; in words) | survival of mice bearing LLC tumors (FIG. 9) (LLC tumors; in words) | Surface calreticulin expression (Geometric mean of fluorescence intensity) (PAN02) | median survival (B16 tumors [2]; B16 tumor-bearing mice, sacrificed at tumor volume 3,000 mm^3, Control 21 days) [days] | mice alive on Day 56 (B16 tumors [2]; B16 tumor-bearing mice, experiment terminated Day 56, all Control animals sacrificed by Day 29) [%] | average tumor volume (B16 tumors [2]; B16 tumors, Day 19, ABC294640 50 mg/kg oral gavage 5 days/week, anti-PD-1 antibody 200 μg/mouse i.p. Days 3, 6 and 10, Control 1702±373) [mm^3] | growth of B16 melanoma tumors (FIG. 6) (B16 tumors [2]; in words) | survival of mice bearing B16 melanoma tumors (FIG. 7) (B16 tumors [2]; in words) | Surface calreticulin expression (Geometric mean of fluorescence intensity) (Lewis Lung carcinoma) | median survival (B16 tumors [3]) [days] | Surface calreticulin expression (Geometric mean of fluorescence intensity) (TRAMP-C2) | Surface calreticulin expression (Geometric mean of fluorescence intensity) (E0771)
nivolumab | up to 10 mg/kg |  |  |  |  |  |  |  |  |  |  |  |  |  |  |  | 
O=C(NCc1ccncc1)C12CC3CC(C1)CC(c1ccc(Cl)cc1)(C3)C2 [ABC294640, 3-(4-chlorophenyl)-adamantane-1-carboxylic acid (pyridin-4-ylmethyl)amide] |  | 2.7 | 3.0 | 22 | 3197±914 | partially inhibited | slightly prolonged | 2.31 | 24 | 30 | 892±364 | partially inhibited | slightly prolonged | 3.0 | 10 | 3.64 | 1.46
